In series [1] the target is T1, recombinant human MMP-2 (Homo sapiens, UniProt P08253).
T1 construct: purchased Anaspec Inc. AS72005
T1 sequence (P08253 110-660): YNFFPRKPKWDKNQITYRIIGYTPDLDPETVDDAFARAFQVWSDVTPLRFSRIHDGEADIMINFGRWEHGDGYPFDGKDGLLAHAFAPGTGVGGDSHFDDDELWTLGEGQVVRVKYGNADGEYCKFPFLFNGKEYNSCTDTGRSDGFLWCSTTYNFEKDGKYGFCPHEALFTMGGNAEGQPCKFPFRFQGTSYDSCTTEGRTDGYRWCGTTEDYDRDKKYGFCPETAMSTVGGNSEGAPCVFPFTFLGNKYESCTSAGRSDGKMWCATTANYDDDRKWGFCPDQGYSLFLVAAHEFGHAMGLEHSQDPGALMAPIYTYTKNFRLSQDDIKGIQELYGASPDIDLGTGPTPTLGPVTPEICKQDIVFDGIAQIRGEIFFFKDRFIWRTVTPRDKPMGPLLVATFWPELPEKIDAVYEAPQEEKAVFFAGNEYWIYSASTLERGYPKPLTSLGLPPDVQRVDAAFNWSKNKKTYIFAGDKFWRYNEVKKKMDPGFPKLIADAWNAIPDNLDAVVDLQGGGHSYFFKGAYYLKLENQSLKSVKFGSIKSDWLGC
Briefly: Competitive fluorogenic enzyme activity assay, MMP-2. To be noted: fluorogenic substrate 5 μM, 5 nM enzyme, 30 min; read-out: IC50 toward MMP-2. In kind it is biochemical. How it is done: (§1) Determination of the IC50 toward human MMP-2, MMP-9, MMP-12 and MMP-13 was performed by a competitive enzyme activity assay according to a literature procedure. The assay was performed by incubating 5 μM of the synthesized fluorogenic peptide substrate Mca-Pro-Leu-Gly-Leu-Dpa(Dnp)-Ala-Arg-NH2 with 5 nM recombinant human MMP-2 (AS72005, Anaspec Inc., CA, USA), MMP-9 (911-MP, R&D Systems, MN, USA), MMP-12 (917-MP, R&D Systems) and MMP-13 (AS72011, Anaspec) along with various concentrations of ML5, I-ML5, PFB, PFP, IPFB, and IPFP (0.2–365 nM) in a buffer (pH 7.5, 50 mM tris(hydroxymethyl)aminomethane, 10 mM calcium chloride, 150 mM sodium chloride, and 0.01% Brij-35) containing 5% dimethyl sulfoxide. The increase in fluorescence over time was measured using a SpectraMax M2e microplate reader (Molecular Devices Inc., CA, USA) with an excitation wavelength of 325 nm and an emission wavelength of 395 nm. The fluorescence intensity after 30 min was plotted as a function of the concentration of each of the compounds on a logarithmic scale to produce an inhibition curve that was subsequently fit with a sigmoidal function by a least squares method. The IC50 values were calculated from the inhibition curves using GraphPad Prism 6 (GraphPad Software, Inc., CA, USA).

In series [2] the target is T2, recombinant human MMP-9 (Homo sapiens, UniProt P14780).
T2 construct: purchased R&D Systems 911-MP
Briefly: Competitive fluorogenic enzyme activity assay, MMP-9. To be noted: fluorogenic substrate 5 μM, 5 nM enzyme, 30 min; read-out: IC50 toward MMP-9. In kind it is biochemical. How it is done: as §1

The target of series [3] is T3, recombinant human MMP-12 (Homo sapiens, UniProt P39900).
T3 construct: purchased R&D Systems 917-MP
Briefly: Competitive fluorogenic enzyme activity assay, MMP-12. In kind it is biochemical. The settings on record: fluorogenic substrate 5 μM, 5 nM enzyme, 30 min; read-out: IC50 toward MMP-12. As to the method:
Determination of the IC50 toward human MMP-2, MMP-9, MMP-12 and MMP-13 was performed by a competitive enzyme activity assay according to a literature procedure. […] The increase in fluorescence over time was measured using a SpectraMax M2e microplate reader (Molecular Devices Inc., CA, USA) with an excitation wavelength of 325 nm and an emission wavelength of 395 nm. The fluorescence intensity after 30 min was plotted as a function of the concentration of each of the compounds on a logarithmic scale to produce an inhibition curve that was subsequently fit with a sigmoidal function by a least squares method. The IC50 values were calculated from the inhibition curves using GraphPad Prism 6 (GraphPad Software, Inc., CA, USA).

Series [4] addresses T4, recombinant human MMP-13 (Homo sapiens, UniProt P45452).
T4 construct: purchased Anaspec AS72011
Briefly: Competitive fluorogenic enzyme activity assay, MMP-13. Type of series: biochemical. To be noted: fluorogenic substrate 5 μM, 5 nM enzyme, 30 min; read-out: IC50 toward MMP-13. As to the method: as §1

Series [5] concerns MMP-12. Also on record: method as in PMID 25438884. The settings on record: fluorogenic inhibition assay; cited from earlier work.
Series [6] concerns MMP-9. Set-up: method as in PMID 25438884. The settings on record: fluorogenic inhibition assay; cited from earlier work.
Details of series [7]: method as in PMID 25822732. The settings on record: cited from earlier work.

T3 sequence (P39900 106-470): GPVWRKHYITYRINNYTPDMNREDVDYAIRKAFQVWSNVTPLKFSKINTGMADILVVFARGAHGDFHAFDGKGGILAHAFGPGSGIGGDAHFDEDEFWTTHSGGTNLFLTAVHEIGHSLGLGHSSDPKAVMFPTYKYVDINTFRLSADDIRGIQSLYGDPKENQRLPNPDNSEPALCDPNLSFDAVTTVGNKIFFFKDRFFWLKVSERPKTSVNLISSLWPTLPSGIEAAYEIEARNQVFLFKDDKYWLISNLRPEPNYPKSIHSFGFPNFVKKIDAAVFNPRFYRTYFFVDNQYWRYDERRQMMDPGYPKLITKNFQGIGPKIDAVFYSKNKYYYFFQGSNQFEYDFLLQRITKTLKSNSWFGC
T2 sequence (P14780 94-707): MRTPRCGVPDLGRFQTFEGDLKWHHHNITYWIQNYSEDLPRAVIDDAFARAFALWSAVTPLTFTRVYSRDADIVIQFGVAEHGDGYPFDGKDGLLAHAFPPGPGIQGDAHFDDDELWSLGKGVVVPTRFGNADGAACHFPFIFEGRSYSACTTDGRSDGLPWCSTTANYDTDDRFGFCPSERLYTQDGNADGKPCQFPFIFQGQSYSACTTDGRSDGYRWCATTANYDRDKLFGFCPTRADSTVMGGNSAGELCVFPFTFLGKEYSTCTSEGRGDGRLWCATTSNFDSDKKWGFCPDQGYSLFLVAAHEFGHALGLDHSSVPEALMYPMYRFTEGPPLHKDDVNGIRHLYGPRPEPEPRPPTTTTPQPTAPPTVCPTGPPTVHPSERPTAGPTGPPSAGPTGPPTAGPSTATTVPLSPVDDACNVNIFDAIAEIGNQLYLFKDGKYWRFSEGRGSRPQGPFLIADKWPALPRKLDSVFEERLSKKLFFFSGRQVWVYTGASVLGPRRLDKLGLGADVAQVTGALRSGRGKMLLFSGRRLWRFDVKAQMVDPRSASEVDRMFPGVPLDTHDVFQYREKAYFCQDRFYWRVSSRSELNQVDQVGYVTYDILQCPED

Usually IC50 stands for the point on the concentration scale where inhibition reaches its midpoint. `CC(C)C[C@H](CC(=O)NO)C(=O)N[C@@H](Cc1ccccc1)C(=O)N[C@@H](CCCCN)C(N)=O` [ML5, reference compound]: the IC50 is 9.6 ± 4.7 nM in series [1]; 37.9 ± 5.2 nM in series [2]; 2.8 ± 0.4 nM in series [3]; 22.4 ± 8.1 nM in series [4]; 2 nM in series [5]; 19.5 nM in series [6].
Consider `CC(C)C[C@H](CC(=O)NO)C(=O)N[C@@H](Cc1ccccc1)C(=O)N[C@@H](CCCCNC(=O)c1ccc([18F])cc1)C(N)=O` [^18F-FB-ML5], for which the “accumulation ratio of lung to liver” value in series [7] is less than 0.1.

The values are drawn from publication PMC5778071, “Development of matrix metalloproteinase-targeted probes for lung inflammation detection with positron emission tomography” (Scientific Reports, 2018).
